The record followed here is patent US20210134398A1, “Combinatorial Chemistry Computational System and Enhanced Selection Method” (Southern Methodist University, priority 2019, published 2021).

The target in series [1] is T1, Cysteineless Mouse MDR3 P-glycoprotein (Mus musculus, UniProt P21447, C1070A/C1121A/C1223A/C133A/C427A/C638A/C669A/C713A/C952A).
T1 construct: made in house; host or cells: Pichia pastoris
Nature of the series: ATPase activity assay (basal and verapamil-stimulated), purified P-gp in mixed micelles. It counts as biochemical. The procedure: Evaluation of mode of inhibition of P-glycoprotein by Group 1 and Group 2 variants of compound 29. To assess the mode of inhibition of P-gp by the novel variants of P-gp inhibitor 29, ATP hydrolysis by P-gp was evaluated in the presence or absence of the variants. […] Murine P-gp (MDR3) expressed in Pichia pastoris that had all naturally occurring cysteines replaced with alanine, was used^45, 46. It is widely assumed that the ATP hydrolytic rate of P-gp is stimulated in the presence of transport substrates when compared to ATP hydrolysis in the absence of transport substrates. Assays comparing these rates can therefore be useful not only in identifying inhibitors of P-gp catalyzed ATP hydrolysis, but also to potentially infer whether a compound might be a transport substrate if basal ATPase rates are stimulated by the addition of a compound.
(§1) P-glycoprotein Purification. Cysteine-less MDR3 and the human normal MDR1 P-glycoprotein was recombinantly expressed in the yeast Pichia pastoris essentially as in^45, 46 and used for assaying ATP hydrolysis and ATP binding to the protein in the presence of the 29-variants. Purification of the protein was performed as described^49 with small modifications resulting in highly enriched P-gp in mixed micelles containing dodecyl maltoside (DDM) and lysophosphatidyl choline^26.
(§2) ATPase Activity Assays. ATP hydrolysis activity was measured using a coupled enzyme assay^72 as modified in reference^26.

For series [2], the target named is T2, Normal Human MDR1 P-glycoprotein (Homo sapiens, UniProt P08183).
T2 construct: made in house; host or cells: Pichia pastoris (P-gp); E. coli BL21 (DE3) (MSP1E3D1)
Put plainly: ATPase activity assay (basal and verapamil-stimulated), P-gp in nanodiscs. It counts as biochemical.
Source text: To assess whether the observed discrepancies of compounds stimulating basal P-gp ATPase activity but not being transport substrates of the human pump in the cell culture assessments were due to the fact that these biochemical assays used a cysteineless variant of the mouse MDR3 P-glycoprotein, the experiments were repeated using normal human MDR1 P-gp. In order to stabilize the human protein for the activity assays, the protein was assembled into membrane nanodiscs as described herein.
as §1
Nanodisc assembly. Human P-gp in mixed detergent micelles obtained during protein purification, was reconstituted into nanodiscsas described in references^73, 74 with small modifications. […] The detergent was removed with Bio-Beads™ SM-2 Adsorbent Media (BioRad). Ni-NTA Agarose (Qiagen) chromatography was used to purify P-gp reconstituted nanodiscs using 6 bed volumes of start buffer (20% (v/v) glycerol, 50 mM Tris-CL pH 7.5 at 4° C., 50 mM NaCl), and 5 bed volumes of elution buffer (20% (v/v) glycerol, 50 mM Tris-Cl pH 7.5 at 4° C., 50 mM NaCl, 300 mM imidazole).
as §2

The mark [3] stands for this setting: in the presence of verapamil, ± standard deviation.
Where [4] appears, read: no added transport substrate, ± standard deviation.

T2 sequence (P08183 whole entry): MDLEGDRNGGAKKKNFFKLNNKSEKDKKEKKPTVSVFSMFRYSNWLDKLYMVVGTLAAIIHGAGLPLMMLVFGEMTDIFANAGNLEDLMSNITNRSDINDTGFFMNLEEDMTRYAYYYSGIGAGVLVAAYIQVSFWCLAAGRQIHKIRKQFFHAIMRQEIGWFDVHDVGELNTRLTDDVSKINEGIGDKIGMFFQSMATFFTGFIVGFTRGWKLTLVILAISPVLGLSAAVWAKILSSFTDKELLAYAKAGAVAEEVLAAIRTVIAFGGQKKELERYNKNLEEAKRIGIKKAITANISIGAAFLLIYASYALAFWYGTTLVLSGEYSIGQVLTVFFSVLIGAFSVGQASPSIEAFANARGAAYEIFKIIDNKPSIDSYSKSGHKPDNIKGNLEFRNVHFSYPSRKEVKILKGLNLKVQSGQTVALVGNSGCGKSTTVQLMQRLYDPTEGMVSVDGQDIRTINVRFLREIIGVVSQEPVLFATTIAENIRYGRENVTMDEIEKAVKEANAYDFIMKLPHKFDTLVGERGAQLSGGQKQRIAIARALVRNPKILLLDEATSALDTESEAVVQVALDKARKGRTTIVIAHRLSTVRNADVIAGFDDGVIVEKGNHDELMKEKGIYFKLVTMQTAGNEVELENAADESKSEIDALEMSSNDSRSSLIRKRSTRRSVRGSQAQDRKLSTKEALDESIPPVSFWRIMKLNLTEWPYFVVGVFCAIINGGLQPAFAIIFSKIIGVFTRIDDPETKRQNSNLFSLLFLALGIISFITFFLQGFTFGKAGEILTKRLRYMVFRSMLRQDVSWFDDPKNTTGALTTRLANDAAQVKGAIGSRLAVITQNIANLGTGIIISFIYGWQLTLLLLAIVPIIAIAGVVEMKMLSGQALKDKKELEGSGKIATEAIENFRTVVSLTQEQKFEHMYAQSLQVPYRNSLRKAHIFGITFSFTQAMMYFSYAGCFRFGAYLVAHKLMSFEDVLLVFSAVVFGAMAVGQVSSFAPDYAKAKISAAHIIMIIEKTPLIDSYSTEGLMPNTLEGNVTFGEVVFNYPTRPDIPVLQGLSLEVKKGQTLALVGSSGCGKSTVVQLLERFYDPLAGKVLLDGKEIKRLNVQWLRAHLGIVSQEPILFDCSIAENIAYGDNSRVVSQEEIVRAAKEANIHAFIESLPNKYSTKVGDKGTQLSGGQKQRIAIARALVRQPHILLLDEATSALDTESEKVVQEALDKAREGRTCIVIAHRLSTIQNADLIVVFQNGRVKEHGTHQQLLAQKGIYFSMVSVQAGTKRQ
T1 sequence (P21447 whole entry C133A/C427A/C638A/C669A/C713A/C952A/C1070A/C1121A/C1223A): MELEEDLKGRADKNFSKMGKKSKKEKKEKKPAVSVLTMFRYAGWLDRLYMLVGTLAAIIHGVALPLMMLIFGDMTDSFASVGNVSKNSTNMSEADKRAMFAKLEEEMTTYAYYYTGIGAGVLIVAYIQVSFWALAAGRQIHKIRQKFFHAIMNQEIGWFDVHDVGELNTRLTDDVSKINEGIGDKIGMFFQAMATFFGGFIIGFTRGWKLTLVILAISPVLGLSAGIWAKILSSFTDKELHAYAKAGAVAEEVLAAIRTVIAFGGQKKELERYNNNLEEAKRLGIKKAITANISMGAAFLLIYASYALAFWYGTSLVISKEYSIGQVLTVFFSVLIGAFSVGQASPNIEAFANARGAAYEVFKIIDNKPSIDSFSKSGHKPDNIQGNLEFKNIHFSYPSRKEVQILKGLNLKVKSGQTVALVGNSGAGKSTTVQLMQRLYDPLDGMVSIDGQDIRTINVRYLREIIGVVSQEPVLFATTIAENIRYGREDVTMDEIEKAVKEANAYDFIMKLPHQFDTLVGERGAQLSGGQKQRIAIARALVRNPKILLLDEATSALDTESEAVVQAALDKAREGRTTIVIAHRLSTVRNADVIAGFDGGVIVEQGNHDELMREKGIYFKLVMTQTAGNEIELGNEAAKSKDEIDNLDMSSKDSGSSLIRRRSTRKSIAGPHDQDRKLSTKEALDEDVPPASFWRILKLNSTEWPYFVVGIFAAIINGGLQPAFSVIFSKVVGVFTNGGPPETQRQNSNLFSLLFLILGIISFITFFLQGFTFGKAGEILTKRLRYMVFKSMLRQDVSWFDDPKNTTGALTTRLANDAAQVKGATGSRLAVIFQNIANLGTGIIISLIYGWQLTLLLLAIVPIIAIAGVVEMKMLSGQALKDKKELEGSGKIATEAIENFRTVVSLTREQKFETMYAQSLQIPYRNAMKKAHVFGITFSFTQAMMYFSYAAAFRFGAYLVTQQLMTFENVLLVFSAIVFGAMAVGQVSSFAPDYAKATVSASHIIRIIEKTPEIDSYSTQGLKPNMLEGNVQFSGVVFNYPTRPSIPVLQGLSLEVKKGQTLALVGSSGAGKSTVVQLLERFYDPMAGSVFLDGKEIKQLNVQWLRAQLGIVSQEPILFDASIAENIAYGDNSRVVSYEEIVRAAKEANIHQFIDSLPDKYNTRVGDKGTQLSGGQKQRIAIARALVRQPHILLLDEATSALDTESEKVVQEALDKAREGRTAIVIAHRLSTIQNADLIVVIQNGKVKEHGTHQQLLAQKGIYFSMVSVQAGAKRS

`Cc1cc(C)c(-c2cc(NC(=O)CSCC(=O)NC(c3ccccc3)c3ccccc3)n(-c3ccccc3)n2)cc1C` [29-280, N-(diphenylmethyl)-2-[({[1-phenyl-3-(2,4,5-trimethylphenyl)-1H-pyrazol-5-yl]carbamoyl)methyl}sulfanyl]acetamide]: the “Effect on stimulated ATPase” value in series [1] (in the presence of verapamil, listed as 280) is listed as “only a slight stimulation”; in series [1] (in the presence of verapamil, listed as SMU29-280), “stimulator”; in series [2] (in the presence of verapamil) it was “inhibitor”. The “Stimulated ATPase” value in series [1] (setting [3]) is 116 ± 4 % of DMSO; in series [2] (setting [3]), 54 ± 7 % of DMSO. Moreover, the “Effect on basal ATPase” value in series [1] (no added transport substrate, listed as SMU29-280) is “stimulator”; in series [2] (no added transport substrate), “inhibitor”. The entries for the “Basal ATPase” value in series [1] (setting [4]) and in series [2] (setting [4]) were 148 ± 4 % of DMSO and 76 ± 8 % of DMSO, respectively.
